Values of other authors, collected in US20110046156A1, “TREATMENT OF HEARING AND BALANCE IMPAIRMENTS WITH REDOX-ACTIVE THERAPEUTICS” (priority 2009, published 2011).

[H]/N=C(/N)N[C@H]1[C@H](O)[C@@H](O)[C@H](O[C@@H]2O[C@@H](C)[C@](O)(C=O)[C@H]2O[C@@H]2O[C@@H](CO)[C@H](O)[C@@H](O)[C@@H]2NC)[C@@H](N/C(N)=N\[H])[C@@H]1O [streptomycin]
incidence of vestibular impairment (1 gram per day): 25%
patients displaying some vestibular impairment (2 grams daily for 60 to 120 days): ~75%
